Results published in paper PMC3723632, “A Multi-targeted Drug Candidate with Dual Anti-HIV and Anti-HSV Activity” (PLoS Pathogens, 2013).
≈ marks a conversion by molar mass, not a printed value. Like-named read-outs stand apart in the source and are kept apart here.

Key:
HSV-1 and HSV-2 strains = experiment: HSV cytopathicity assay in HEL cell cultures, HSV-1 and HSV-2 stated together; assay type: cell-based
Procedure: Figure 2 Antiherpetic activity of test compounds in cell culture. Confluent HEL cell cultures were exposed to 100 TCID50 of clinical virus isolates [wild-type HSV-1 (panel A), wild-type HSV-2 (panel B), TK^− HSV-1 (panel C) and TK^− HSV-2 (panel D)] in the presence of drugs at different concentrations and incubated for 3 days at 37°C. Then, the cytopathicity was determined microscopically and the EC50 values determined. ^aEC50, 50% effective concentration or compound concentration required to reduce virus-induced cytopathicity (CPE) by 50%. Data shown are the means of at least two independent experiments. The HSV-1, HSV-2, HSV-1 TK^−, and HSV-2 TK^− clinical isolates have been described in reference 19, including the nature of the mutations in the TK gene of the acyclovir-resistant virus strains.

[1] = system: HSV-2 (G and clinical isolates); experiment: microbe, parasite or virus in culture; assay type: cell-based; conditions: Human alphaherpesvirus 2, HEL
Procedure: (§1) Figure 2 Antiherpetic activity of test compounds in cell culture. Confluent HEL cell cultures were exposed to 100 TCID50 of clinical virus isolates [wild-type HSV-1 (panel A), wild-type HSV-2 (panel B), TK^− HSV-1 (panel C) and TK^− HSV-2 (panel D)] in the presence of drugs at different concentrations and incubated for 3 days at 37°C. […] Data shown are the means of at least two independent experiments.

[2] = system: HSV-1 (KOS and clinical isolates); experiment: microbe, parasite or virus in culture; assay type: cell-based; conditions: Human alphaherpesvirus 1, HEL
Procedure: as §1

HIV-1(IIIB) = experiment: Anti-HIV-1 activity in CD4+ T-lymphocyte CEM cell cultures; assay type: cell-based; conditions: Human immunodeficiency virus 1, CCRF-CEM, virus-induced cytopathicity
Description: (§2) Human CD4 ^+ T-lymphocyte CEM cell cultures were inoculated with HIV-1 and HIV-2 and exposed to adefovir, tenofovir, or PMEO-DAPym. […]

HSV-2 (G) = experiment: HSV-2 infection of primary monocyte/macrophage (M/M) cultures; assay type: cell-based
PBMC = experiment: Bio-Plex chemokine assay in PBMC cultures; assay type: cell-based, human; conditions: for production of CC-chemokines: even at 500 µg/ml; for MIP-1β induced: 24 h
Procedure: Figure 9 Expression of CC-chemokines, CCR5 and chemokine mRNA expression in PBMC cultures after drug treatment. Panel A: Production of CC-chemokines by PBMC and the effects of adefovir, tenofovir, and PMEO-DAPym on the expression of the CCR5 receptor. Freshly isolated PBMCs from four healthy donors were incubated for 24 h with medium only (NC) or with adefovir, tenofovir, or PMEO-DAPym. We collected the supernatants and measured the concentrations of MIP-1α (▪), MIP-1β (▴), and RANTES (•) using a Bioplex system (Bio-Rad, Hercules, CA). Shown are means ± SEM. The cells were also collected, and the expression of the CCR5 receptor (□) was measured with flow cytometry using the PE-labeled CCR5 (clone 2D7) mAb; it is shown as percentage of control (± SEM) from four independent representative experiments. Panel B: Chemokine mRNA expression upon PMEO-DAPym exposure to PBMC. RT-PCR analysis of MIP-1α, MIP-1β, RANTES, and GAPDH (control) expression in PBMC treated with 100-µg/ml PMEO-DAPym for 4 h. Similar results were obtained with PBMC from three different donors. Results from one representative donor are shown.
Freshly isolated PBMC were cultured in the presence of adefovir, tenofovir, and PMEO-DAPym, and culture supernatants were collected after 24 h. We determined the cytokine production profile using the Bio-Plex 200 system (Bio-Rad, Hercules, CA) and a Bio-Plex Human chemokine assay according to the manufacturer's instructions and as described in detail earlier. The assay kit contains beads conjugated with mAbs specific for interferon-inducible protein-10 (IP-10), macrophage inflammatory protein-1α (MIP-α), and MIP-1β, and regulated on activation normal T-cell expressed and secreted (RANTES). For each chemokine, eight standards ranging from approximately 1.5 pg/ml to 32,000 pg/ml were constructed, and the minimum detectable dose was between 1.5 pg/ml and 8 pg/ml. Standard curves and the concentrations of chemokines within samples were generated with the Bio-Plex Manager 4.1 software.

HIV-2(ROD) = experiment: Anti-HIV-2 activity in CD4+ T-lymphocyte CEM cell cultures; assay type: cell-based; conditions: Human immunodeficiency virus 2, CCRF-CEM
Description: as §2

HSV-2 (G strain) = experiment: Pre-treatment of PHK cell cultures, HSV-2 infection (CPE)
Procedure: (§3) The HSV-induced cytopathic effect (CPE) was evaluated in HSV-infected HEL and PHK cultures as described [44], [48].

HSV-1 (KOS strain) = experiment: Pre-treatment of PHK cell cultures, HSV-1 infection (CPE)
Procedure: as §3

[3] = thirteen clinical wild-type HSV-1 and HSV-2 isolates, read-out: average EC50
[4] = wild-type laboratory HSV-1 and HSV-2 strains, range, read-out: EC50
[5] = HSV-2, average of seven TK-deficient clinical isolates
[6] = HSV-2, average of seven clinical isolates
[7] = HSV-1, average of six TK-deficient clinical isolates
[8] = HSV-1, average of six clinical isolates
[9] = Human alphaherpesvirus 2, read-out: 50% effective concentration, PHK, HSV-2 G, +2 h to 72 h (control, drug present whole incubation)
[10] = Human alphaherpesvirus 2, read-out: 50% effective concentration, PHK, HSV-2 G, pretreatment −2.5 h to 0 h
[11] = Human alphaherpesvirus 2, read-out: 50% effective concentration, PHK, HSV-2 G, pretreatment −6 h to 0 h
[12] = Human alphaherpesvirus 2, read-out: 50% effective concentration, PHK, HSV-2 G, pretreatment −18 h to 0 h
[13] = Human alphaherpesvirus 1, read-out: 50% effective concentration, PHK, HSV-1 KOS, +2 h to 72 h (control, drug present whole incubation)
[14] = Human alphaherpesvirus 1, read-out: 50% effective concentration, PHK, HSV-1 KOS, pretreatment −2.5 h to 0 h
[15] = Human alphaherpesvirus 1, read-out: 50% effective concentration, PHK, HSV-1 KOS, pretreatment −6 h to 0 h
[16] = Human alphaherpesvirus 1, read-out: 50% effective concentration, PHK, HSV-1 KOS, pretreatment −18 h to 0 h
[17] = HIV-2(ROD), CEM, virus-induced cytopathicity, read-out: EC50

C[C@H](Cn1cnc2c(N)ncnc21)OCP(=O)(O)O [Tenofovir, 9-(2-phosphonylmethoxypropyl)adenine]
EC50 (HSV-1 and HSV-2 strains; [3]): ~130 µg/mL (≈ 453 µM)
EC50 (HSV-1 and HSV-2 strains; [4]): 105 to 122 µg/mL (≈ 366 to 425 µM)
EC50 ([1]; HSV-2 (G)): 122 ± 51 µg/mL (≈ 425 µM)
EC50 [1, 5]: 121 ± 15 µg/mL (≈ 421 µM)
EC50 [1, 6]: 139 ± 11 µg/mL (≈ 484 µM)
EC50 ([2]; HSV-1 (KOS)): 105 ± 20 µg/mL (≈ 366 µM)
EC50 [2, 7]: 151 ± 19 µg/mL (≈ 526 µM)
EC50 [2, 8]: 125 ± 12 µg/mL (≈ 435 µM)
EC50 (HIV-1(IIIB)): 0.36 ± 0.24 µg/mL (≈ 1.25 µM)
Cytopathicity (CPE) on macrophages 6 days after infection % CPE (HSV-2 (G); 0.0032 µg/ml): 85%
Cytopathicity (CPE) on macrophages 6 days after infection % CPE (HSV-2 (G); 0.4 µg/ml): 40%
Cytopathicity (CPE) on macrophages 6 days after infection % CPE (HSV-2 (G); 2 µg/ml): 30%
production of CC-chemokines (PBMC): Neither adefovir nor tenofovir induced notable production of CC-chemokines
EC50 (HIV-2(ROD)): 0.43 ± 0.41 µg/mL (≈ 1.5 µM)

Nc1cc(OCCOCP(=O)(O)O)nc(N)n1 [PMEO-DAPym, 6-phosphonylmethoxyethoxy-2,4-diaminopyrimidine]
EC50 (HSV-1 and HSV-2 strains; TK− HSV isolates, read-out: average EC50): 2.4 µg/mL (≈ 9.08 µM)
EC50 (HSV-1 and HSV-2 strains; [3]): ~2 µg/mL (≈ 7.57 µM)
EC50 (HSV-1 and HSV-2 strains; [4]): 2.6 to 6.3 µg/mL (≈ 9.84 to 23.8 µM)
EC50 ([1]; HSV-2 (G)): 4.4 ± 2.4 µg/mL (≈ 16.7 µM)
EC50 [1, 5]: 2.4 ± 0.4 µg/mL (≈ 9.08 µM)
EC50 [1, 6]: 2 ± 0.4 µg/mL (≈ 7.57 µM)
EC50 ([2]; HSV-1 (KOS)): 2.6 ± 1.2 µg/mL (≈ 9.84 µM)
EC50 [2, 7]: 2.4 ± 0.6 µg/mL (≈ 9.08 µM)
EC50 [2, 8]: 2 ± 0.5 µg/mL (≈ 7.57 µM)
EC50 (HIV-1(IIIB)): 0.9 ± 0.4 µg/mL (≈ 3.41 µM)
EC50 (HSV-2 (G strain); [9]): 3.5 ± 1.1 µg/mL (≈ 13.2 µM)
EC50 (HSV-2 (G strain); [10]): 31.6 µg/mL (≈ 120 µM)
EC50 (HSV-2 (G strain); [11]): 12.6 µg/mL (≈ 47.7 µM)
EC50 (HSV-2 (G strain); [12]): 8.7 ± 1.8 µg/mL (≈ 32.9 µM)
Cytopathicity (CPE) on macrophages 6 days after infection % CPE (HSV-2 (G); 0.0032 µg/ml): 85%
Cytopathicity (CPE) on macrophages 6 days after infection % CPE (HSV-2 (G); 0.4 µg/ml): 35%
Cytopathicity (CPE) on macrophages 6 days after infection % CPE (HSV-2 (G); 2 µg/ml): 0–15%
EC50 (HSV-1 (KOS strain); [13]): 2.6 ± 0.8 µg/mL (≈ 9.84 µM)
EC50 (HSV-1 (KOS strain); [14]): 31.6 µg/mL (≈ 120 µM)
EC50 (HSV-1 (KOS strain); [15]): 29.6 µg/mL (≈ 112 µM)
EC50 (HSV-1 (KOS strain); [16]): 7 ± 0.6 µg/mL (≈ 26.5 µM)
effect on IP-10 levels (PBMC): did not affect IP-10 levels
MIP-1β induced (PBMC; 20 µg/ml): 7.5 ng/mL
MIP-1β induced (PBMC; 100 µg/ml): 20 ng/mL
MIP-1β induced (PBMC; 500 µg/ml): 27 ng/mL
EC50 (HIV-2(ROD); [17]): 0.66 ± 0.19 µg/mL (≈ 2.5 µM)

Nc1ncnc2c1ncn2CCOCP(=O)(O)O [Adefovir, 9-(2-phosphonylmethoxyethyl)adenine]
EC50 (HSV-1 and HSV-2 strains; [3]): ~6 µg/mL (≈ 22 µM)
EC50 (HSV-1 and HSV-2 strains; [4]): 2.6 to 6.3 µg/mL (≈ 9.52 to 23.1 µM)
EC50 ([1]; HSV-2 (G)): 6.3 ± 2.6 µg/mL (≈ 23.1 µM)
EC50 [1, 5]: 7.5 ± 1.5 µg/mL (≈ 27.5 µM)
EC50 [1, 6]: 5.9 ± 0.9 µg/mL (≈ 21.6 µM)
EC50 ([2]; HSV-1 (KOS)): 4.7 ± 1.8 µg/mL (≈ 17.2 µM)
EC50 [2, 7]: 7 ± 1.4 µg/mL (≈ 25.6 µM)
EC50 [2, 8]: 6.2 ± 1 µg/mL (≈ 22.7 µM)
EC50 (HIV-1(IIIB)): 0.96 ± 0.24 µg/mL (≈ 3.51 µM)
EC50 (HSV-2 (G strain); [9]): 9.2 ± 6 µg/mL (≈ 33.7 µM)
EC50 (HSV-2 (G strain); [10]): 20 µg/mL (≈ 73.2 µM)
EC50 (HSV-2 (G strain); [11]): 11.9 µg/mL (≈ 43.6 µM)
EC50 (HSV-2 (G strain); [12]): 13.3 ± 2.6 µg/mL (≈ 48.7 µM)
Cytopathicity (CPE) on macrophages 6 days after infection % CPE (HSV-2 (G); 0.0032 µg/ml): 80%
Cytopathicity (CPE) on macrophages 6 days after infection % CPE (HSV-2 (G); 0.4 µg/ml): 30%
Cytopathicity (CPE) on macrophages 6 days after infection % CPE (HSV-2 (G); 2 µg/ml): 0–5%
EC50 (HSV-1 (KOS strain); [13]): 5.1 ± 1.7 µg/mL (≈ 18.7 µM)
EC50 (HSV-1 (KOS strain); [14]): 30 µg/mL (≈ 110 µM)
EC50 (HSV-1 (KOS strain); [15]): 23.3 µg/mL (≈ 85.3 µM)
EC50 (HSV-1 (KOS strain); [16]): 8.2 ± 1.6 µg/mL (≈ 30 µM)
production of CC-chemokines (PBMC): Neither adefovir nor tenofovir induced notable production of CC-chemokines
EC50 (HIV-2(ROD); [17]): 1.9 ± 1.1 µg/mL (≈ 6.95 µM)
